These results are taken from patent US11092610B2, “Biomarker SBP1 for early diagnosis of kidney diseases, and use thereof” (CELLGENTEK CO., LTD., priority 2016, dated 2021).

Data set [1] deals with rat. Description: Hepatotoxicity model (carbon tetrachloride), liver findings and urinary SBP1. In kind it is in vivo. As for the experimental part:
(§1) The extracted proteins were dissolved, and transferred to a nitrocellulose membrane. Here, methanol was added to a transfer buffer, and the reaction was performed at 80 V for 1 hour. After the proteins were transferred, the membrane was stained with Ponceau S (within 10 seconds to 1 minute, slightly stained to see a band), and sufficiently washed with DW or PBS for blocking. Here, a blocking buffer was used by dissolving 3 to 5% bovine serum albumin (BSA) in a solution in which TWEEN™ 20 was contained in Tris-buffered saline (TBS). A primary antibody was reacted at 4° C. overnight, rinsed with a wash buffer (surfactant-containing TBS or PBS) to remove unbinding primary antibodies, and then secondary antibodies were reacted. After the secondary antibodies were reacted, unbinding secondary antibodies were rinsed with a washing buffer, and a band was identified using luminol.
To confirm whether urinary SBP1 is released in a hepatotoxicity model, a hepatotoxic material such as carbon tetrachloride (CCl4) was administered to a rat to induce hepatotoxicity, and then SBP1 level in urine was measured.

For data set [2], the system named is SD rats. Description: Drug (cisplatin)-induced renal failure animal model. The data set is classed as in vivo, rat. The conditions noted are these: 10 mg/kg I.P. As for the experimental part:
On Day 1, Day 3 and Day 5 after the injection, protein contents in urine obtained for 24 hours were measured in rats of the cisplatin-administered experimental group and the untreated control.
as §1
A supernatant was obtained by centrifuging each urine sample at 3000 g for 15 minutes, and stored in a freezer at −80° C. Following the urine collection, experimental animals were anesthetized with carbon dioxide to collect blood from the abdominal aorta, and after natural death due to bleeding, the kidneys and liver were extracted. A supernatant was obtained by centrifuging each blood sample at 1500 g for 15 minutes, and stored in a freezer at −80° C. The obtained urine and blood samples were subjected to detection of conventional markers using a test kit corresponding to each parameter.

Data set [3] concerns Sprague-Dawley rat. Nature of the data set: Diabetic animal model induced by STZ administration (blood glucose, urine and renal failure markers). The data set is classed as in vivo. As for the experimental part: To verify a diabetic animal model induced by STZ administration according to Example 1-1 of the present invention, an experiment was carried out by designing the experimental model as described in FIG. 1A.
However, in an experimental group in which diabetic animals are treated with an antidiabetic drug, it was confirmed that a blood glucose level was decreased gradually on Day 7, Day 14 and Day 21, and decreased to almost the normal level on the last day, Day 28.
Then, it was confirmed whether renal failure occurs in a diabetic animal model induced by STZ administration. […] It can be seen that, in the anti-diabetic drug-administered group, the BUN and creatinine levels are decreased to a normal range.

[4] abbreviates: after administration of hepatotoxic material.
[5] abbreviates: one day after administration, then decreased.
[6] abbreviates: STZ 50 mg/kg single dose I.P., rat.

For `ClC(Cl)(Cl)Cl` [carbon tetrachloride], in data set [1] (setting [4]), the BUN entry is recorded as “no changes”, the “SBP1 in urine (western blotting)” value was “not detected” and the creatinine result is “no changes”. In data set [1] (setting [5]), the “ALT level compared with the control” value is reported as “increased” and the “AST level compared with the control” value is “increased”. Further, in data set [1] (rat liver, from one day after administration), the “hepatotoxicity, liver histopathology (H&E staining)” value is recorded as “severe liver failure was observed”.

Consider `N.N.[Cl][Pt][Cl]` [cisplatin], for which, in data set [2] (Day 1), the “BUN compared with the control” value was “no significant differences”, the “kidney tissue damage (histology)” value is listed as “mildly damaged”, the “serum creatinine compared with the control” value is on record as “no significant differences” and the “urinary SBP1 level (western blotting)” value is listed as “increased”. Further, in data set [2] (Day 3), the “BUN compared with the control” value is listed as “significantly increased”, the “serum creatinine compared with the control” value is given as “significantly increased” and the “urinary SBP1 level compared with the control” value was “highly increased”. For the same compound, in data set [2] (Day 5), the “BUN, increase compared with the control” value is recorded as 3 to 5 fold; the “kidney tissue damage (histology)” value was “most tubules were severely damaged”; the “serum creatinine, increase compared with the control” value fell in the range of 3 to 5 fold; the “urinary SBP1 level (western blotting)” value is reported as “detected at a very high level”.

Turning to `CN(N=O)C(=O)N[C@@H](C=O)[C@@H](O)[C@H](O)[C@H](O)CO` [STZ, streptozocin], in data set [3] (setting [6]), the blood glucose level is listed as ≥ 600 mg/dL and the “blood glucose level, increase compared to the control” value was ≥ 6 fold. Further, in data set [3] (STZ-administered group, rat), the “BUN, increase compared to the control” value was ≥ 2 fold; the “creatinine, increase compared to the control” value is ≥ 2 fold; the “microalbumin in urine, increase compared to the control” value is recorded as ≥ 10 fold. Further, the “urine volume, increase compared to the control” value in data set [3] (diabetic animal induced by STZ administration) is reported as ≥ 3 fold.
